Molecules are shown by their SMILES.

T1 sequence (P00533 25-1210 T790M/C797S/L858R): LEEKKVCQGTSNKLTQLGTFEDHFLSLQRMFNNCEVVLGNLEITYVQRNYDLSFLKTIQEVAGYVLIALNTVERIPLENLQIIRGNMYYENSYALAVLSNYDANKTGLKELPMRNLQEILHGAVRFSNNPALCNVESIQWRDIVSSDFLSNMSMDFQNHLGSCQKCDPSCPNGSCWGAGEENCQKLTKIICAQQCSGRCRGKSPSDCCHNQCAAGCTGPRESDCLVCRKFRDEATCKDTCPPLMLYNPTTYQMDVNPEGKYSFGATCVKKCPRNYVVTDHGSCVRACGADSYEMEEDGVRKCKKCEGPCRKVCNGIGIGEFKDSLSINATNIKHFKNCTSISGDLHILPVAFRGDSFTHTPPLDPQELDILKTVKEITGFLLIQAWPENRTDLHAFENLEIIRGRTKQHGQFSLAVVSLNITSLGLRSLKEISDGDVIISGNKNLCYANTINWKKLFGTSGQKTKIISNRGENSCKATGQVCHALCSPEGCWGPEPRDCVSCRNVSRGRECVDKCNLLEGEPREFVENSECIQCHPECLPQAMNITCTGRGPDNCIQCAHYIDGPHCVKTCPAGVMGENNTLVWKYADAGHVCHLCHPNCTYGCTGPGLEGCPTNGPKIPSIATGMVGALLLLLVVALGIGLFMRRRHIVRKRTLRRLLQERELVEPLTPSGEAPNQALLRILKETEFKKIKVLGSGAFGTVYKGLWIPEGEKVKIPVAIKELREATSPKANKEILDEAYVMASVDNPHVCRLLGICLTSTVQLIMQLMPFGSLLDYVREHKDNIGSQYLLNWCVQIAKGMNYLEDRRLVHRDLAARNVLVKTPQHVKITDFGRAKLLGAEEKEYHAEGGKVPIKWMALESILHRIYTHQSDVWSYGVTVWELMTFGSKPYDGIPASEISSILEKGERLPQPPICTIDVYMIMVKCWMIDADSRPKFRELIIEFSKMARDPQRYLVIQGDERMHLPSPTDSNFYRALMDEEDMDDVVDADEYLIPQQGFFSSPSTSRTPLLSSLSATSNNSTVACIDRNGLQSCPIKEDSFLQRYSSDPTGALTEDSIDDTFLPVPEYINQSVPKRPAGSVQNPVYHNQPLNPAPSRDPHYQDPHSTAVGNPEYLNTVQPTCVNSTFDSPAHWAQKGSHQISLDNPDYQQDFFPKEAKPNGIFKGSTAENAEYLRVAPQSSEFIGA

The assay concerns the target T1, EGFR T790M/L858R/C797S (Homo sapiens, UniProt P00533, C797S/L858R/T790M).
T1 construct: expressed in transfected cells; host or cells: BaF3 (Ba/F3) cells, lentivirally transduced with a pCDH vector under the PGK promoter
Kind of assay: EGFR degradation assay (cellular), FRET quantification of total EGFR. The class given is cell-based. Particulars: BaF3 EGFR T790M/L858R/C797S cells, 4 hours incubation, total EGFR FRET signal, top concentration 1 μM; read-out: IC50 value (BaF3 EGFR T790M/L858R/C797S degradation). As to the method: EGFR Degradation Assay (Cellular)
The BaF3 parental line was purchased from DSMZ and grown in RPMI media supplemented with 10% FBS and 10 ng/mL interleukin 3 (IL-3) (Thermo Fisher Scientific). EGFR mutants (T790M/L853R, T790M/L853R/C797S) were cloned into the pCDH lentiviral vector (SystemBio) under the control of a PGK promoter and confirmed by DNA sequencing. The resulting gene expression vector for each mutant was mixed with packaging vectors and cotransfected into 2×10E6 HEK293T cells (ATCC) in 10 mL of DMEM media to generate lentiviral particles according to the manufacturers protocol (Origene).
Three days post-transfection, the viral supernatant was harvested and filtered. In one well of a 12-well plate, 0.5 mL of viral supernatant was added to 2E6 Ba/F3 cells contained in 1.5 mL of RPMI media including 10% FBS, 10 ng/mL IL-3, and 5 μg/mL polybrene (Invitrogen). The plate was centrifuged at 2,000 rpm for 1 hour at room temperature and infected cells were kept in a tissue culture incubator overnight at 37° C. The cells were washed once in fresh BaF3 media and reseeded at 0.5E6 cells/well of a 12-well plate in media supplemented with 0.5 μg/mL puromycin. The cells were maintained in this media for 3 weeks. IL-3-independent, EGFR mutant transformed cells were routinely maintained in RPMI medium supplemented with 10% FBS.
RPMI 1640 no-phenol red medium and fetal bovine serum (FBS) were purchased from Gibco (Grand Island, N.Y., USA). EGFR total kit and EGFR phospho-Y1068 kit were purchased from Cisbio (Bedford, Mass., USA). BaF3 EGFR mutant cell lines (EGFR T790M/L858R/C797S) cell line was generated in house, according to the protocol reported above. Cell culture flasks and 384-well microplates were acquired from VWR (Radnor, Pa., USA).
EGFR degradation was determined based on quantification of FRET signal using EGFR total kit. The FRET signal detected correlates with total EGFR protein level in cells. Briefly, test compounds were added to the 384-well plate from a top concentration of 1 μM with 11 points, half log titration in quadruplicates. Then, BaF3 EGFR mutant cell lines (EGFR T790M/L858R/C797S) were added into 384-well plates at a cell density of 10000 cells per well. The plates were kept at 37° C. with 5% CO2 for 4 hours. After 4-hour incubation, 4× lysis buffer was added to the cells, and then then microplate was agitated on plate shaker at 500 rpm for 30 minutes at room temperature. Next, total EGFR antibody solution was added to the cells and the cells were incubated for another 4 hours at room temperature. Finally, FRET signal was acquired on EnVision™ Multilabel Reader (PerkinElmer, Santa Clara, Calif., USA). The cells treated in the absence of the test compound were the negative control and lysis buffer with antibody solution only were the positive control.
Consider `O=C1CCC(N2C(=O)c3cccc(NCCCCN4CCC(NC(=O)c5ccc(C#Cc6ccc7c(c6)C(=O)N(C(C(=O)Nc6nccs6)c6ccccc6)C7)cn5)CC4)c3C2=O)C(=O)N1` (racemic) [Example 6, N-[1-[4-[[2-[(3RS)-2,6-Dioxo-3-piperidyl]-1,3-dioxo-isoindolin-4-yl]amino]butyl]-4-piperidyl]-5-[2-[3-oxo-2-[(1RS)-2-oxo-1-phenyl-2-(thiazol-2-ylamino)ethyl]isoindolin-5-yl]ethynyl]pyridine-2-carboxamide], for which the DC50 was found to be 21 nM.

`O=C1CCC(N2C(=O)c3cccc(N4CCC(CC(=O)N5CCN(Cc6ccc(C#Cc7ccc8c(c7)C(=O)N(C(C(=O)Nc7ccccn7)c7ccccc7)C8)cn6)CC5)CC4)c3C2=O)C(=O)N1` (racemic) [Example 12, (2RS)-2-[6-[2-[6-[[4-[2-[1-[2-[(3RS)-2,6-Dioxo-3-piperidyl]-1,3-dioxo-isoindolin-4-yl]-4-piperidyl]acetyl]piperazin-1-yl]methyl]-3-pyridyl]ethynyl]-1-oxo-isoindolin-2-yl]-2-phenyl-N-(2-pyridyl)acetamide]: the DC50 worked out at 38 nM.

For `O=C1CCC(N2C(=O)c3cccc(NCC(=O)N4CCC(NC(=O)c5ccc(C#Cc6ccc7c(c6)C(=O)N(C(C(=O)Nc6nccs6)c6ccccc6)C7)cn5)CC4)c3C2=O)C(=O)N1` (racemic) [Example 5, N-[1-[2-[[2-[(3RS)-2,6-Dioxo-3-piperidyl]-1,3-dioxo-isoindolin-4-yl]amino]acetyl]-4-piperidyl]-5-[2-[3-oxo-2-[(1RS)-2-oxo-1-phenyl-2-(thiazol-2-ylamino)ethyl]isoindolin-5-yl]ethynyl]pyridine-2-carboxamide], the DC50 worked out at 18 nM.

In the case of `O=C1CCC(N2C(=O)c3cccc(NCCCCCC(=O)N4CCN(Cc5ccc(C#Cc6ccc7c(c6)C(=O)N(C(C(=O)Nc6nccs6)c6ccccc6)C7)cc5)CC4)c3C2=O)C(=O)N1` (racemic) [Example 1, (2RS)-2-[6-[2-[4-[[4-[6-[[2-[(3RS)-2,6-Dioxo-3-piperidyl]-1,3-dioxo-isoindolin-4-yl]amino]hexanoyl]piperazin-1-yl]methyl]phenyl]ethynyl]-1-oxo-isoindolin-2-yl]-2-phenyl-N-thiazol-2-yl-acetamide], the DC50 was determined as 40 nM.

`O=C1CCC(N2C(=O)c3cccc(NCCCCN4CCC(NC(=O)c5ncc(C#Cc6ccc7c(c6)C(=O)N(C(C(=O)Nc6nccs6)c6ccccc6)C7)cc5F)CC4)c3C2=O)C(=O)N1` (racemic) [Example 8, N-[1-[4-[[2-[(3RS)-2,6-Dioxo-3-piperidyl]-1,3-dioxo-isoindolin-4-yl]amino]butyl]-4-piperidyl]-3-fluoro-5-[2-[3-oxo-2-[(1RS)-2-oxo-1-phenyl-2-(thiazol-2-ylamino)ethyl]isoindolin-5-yl]ethynyl]pyridine-2-carboxamide]: the DC50 came out at 20 nM.

Consider `O=C1CCC(N2C(=O)c3cccc(NCCCC(=O)N4CCC(NC(=O)c5ccc(C#Cc6ccc7c(c6)C(=O)N(C(C(=O)Nc6nccs6)c6cc(F)ccc6O)C7)cn5)CC4)c3C2=O)C(=O)N1` (racemic) [Example 7, N-[1-[4-[[2-[(3RS)-2,6-Dioxo-3-piperidyl]-1,3-dioxo-isoindolin-4-yl]amino]butanoyl]-4-piperidyl]-5-[2-[2-[(1RS)-1-(5-fluoro-2-hydroxy-phenyl)-2-oxo-2-(thiazol-2-ylamino)ethyl]-3-oxo-isoindolin-5-yl]ethynyl]pyridine-2-carboxamide], for which the DC50 was found to be 12 nM.

For `O=C1CCC(N2C(=O)c3cccc(NCCCC(=O)N4CCC(NC(=O)c5ccc(C#Cc6ccc7c(c6)C(=O)N(C(C(=O)Nc6nccs6)c6ccccc6)C7)cn5)CC4)c3C2=O)C(=O)N1` (racemic) [Example 2, N-[1-[4-[[2-[(3RS)-2,6-Dioxo-3-piperidyl]-1,3-dioxo-isoindolin-4-yl]amino]butanoyl]-4-piperidyl]-5-[2-[3-oxo-2-[(1RS)-2-oxo-1-phenyl-2-(thiazol-2-ylamino)ethyl]isoindolin-5-yl]ethynyl]pyridine-2-carboxamide], the DC50 is 21 nM.

As to `O=C1CCC(N2C(=O)c3cccc(NCCCC(=O)N4CCN(Cc5ccc(C#Cc6ccc7c(c6)C(=O)N(C(C(=O)Nc6nccs6)c6ccccc6)C7)cc5)CC4)c3C2=O)C(=O)N1` (racemic) [Example 3, (2RS)-2-[6-[2-[4-[[4-[4-[[2-[(3RS)-2,6-Dioxo-3-piperidyl]-1,3-dioxo-isoindolin-4-yl]amino]butanoyl]piperazin-1-yl]methyl]phenyl]ethynyl]-1-oxo-isoindolin-2-yl]-2-phenyl-N-thiazol-2-yl-acetamide], the DC50 is 35 nM.

For the compound `O=C1CCC(N2C(=O)c3cccc(NCCCC(=O)N4CCN(Cc5ccc(C#Cc6ccc7c(c6)C(=O)N(C(C(=O)Nc6nccs6)c6ccccc6)C7)cn5)CC4)c3C2=O)C(=O)N1` (racemic) [Example 4, (2RS)-2-[6-[2-[6-[[4-[4-[[2-[(3RS)-2,6-Dioxo-3-piperidyl]-1,3-dioxo-isoindolin-4-yl]amino]butanoyl]piperazin-1-yl]methyl]-3-pyridyl]ethynyl]-1-oxo-isoindolin-2-yl]-2-phenyl-N-thiazol-2-yl-acetamide], the DC50 came out at 14 nM.

Consider `O=C1CCC(N2C(=O)c3cccc(NCCCCN4CCC(NC(=O)c5ccc(C#Cc6ccc7c(c6)C(=O)N(C(C(=O)Nc6nccs6)c6cc(F)ccc6O)C7)cn5)CC4)c3C2=O)C(=O)N1` (racemic) [Example 10, N-[1-[4-[[2-[(3RS)-2,6-Dioxo-3-piperidyl]-1,3-dioxo-isoindolin-4-yl]amino]butyl]-4-piperidyl]-5-[2-[2-[(1RS)-1-(5-fluoro-2-hydroxy-phenyl)-2-oxo-2-(thiazol-2-ylamino)ethyl]-3-oxo-isoindolin-5-yl]ethynyl]pyridine-2-carboxamide], for which the DC50 came to 13 nM.

`O=C1CCC(N2C(=O)c3cccc(NCCCCN4CCC(NC(=O)c5ccc(C#Cc6ccc7c(c6)C(=O)N(C(C(=O)Nc6ccccn6)c6ccccc6)C7)cn5)CC4)c3C2=O)C(=O)N1` (racemic) [Example 9, N-[1-[4-[[2-[(3RS)-2,6-Dioxo-3-piperidyl]-1,3-dioxo-isoindolin-4-yl]amino]butyl]-4-piperidyl]-5-[2-[3-oxo-2-[(1RS)-2-oxo-1-phenyl-2-(2-pyridylamino)ethyl]isoindolin-5-yl]ethynyl]pyridine-2-carboxamide]: the DC50 came to 52 nM.

For the compound `O=C1CCC(N2C(=O)c3ccc(N4CCC(CN5CCC(NC(=O)c6ccc(C#Cc7ccc8c(c7)C(=O)N(C(C(=O)Nc7ccccn7)c7ccccc7)C8)cn6)CC5)CC4)cc3C2=O)C(=O)N1` (racemic) [Example 11, N-[1-[[1-[2-[(3RS)-2,6-Dioxo-3-piperidyl]-1,3-dioxo-isoindolin-5-yl]-4-piperidyl]methyl]-4-piperidyl]-5-[2-[3-oxo-2-[(1RS)-2-oxo-1-phenyl-2-(2-pyridylamino)ethyl]isoindolin-5-yl]ethynyl]pyridine-2-carboxamide], the DC50 amounted to 48 nM.

Source of the values: US20200361930A1, “BIFUNCTIONAL MOLECULES THAT DEGRADE EGFR” (Hoffmann-La Roche Inc., priority 2018, published 2020).
